Laboratory results taken from patent publication US11666577B2 (National Institute of Biological Sciences, Beijing, priority 2018, dated 2023).

tested on: HT-29 cells; assay: Necroptosis assay (TNF-α/Smac mimetic/z-VAD, TSZ-induced) in HT-29 cells; type: cell-based, human; conditions: Homo sapiens; Series 1 (Table 1) compounds 1-146; HT-29 cells, TNF-α/Smac mimetic/z-VAD, 24 hrs, cell viability by ATP level; read-out: Series 1 compound necroptosis activity
Summary of the method: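 HT-29 cells were challenged with 20 ng/ml TNF-α, 100 nM Smac mimetic and 20 mM z-VAD while compound was added at the same time (library screen at 10 mM). After 24 h, viability was read as ATP luminescence (CellTiter-Glo) and normalized to DMSO-treated cells; values are means ± SD of duplicates.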

SMILES	EC50
CCS(=O)(=O)c1nc2c(c(=O)n(C)c(=O)n2C)n1C [Compound 7, 8-(ethylsulfonyl)-1,3,7-trimethyl-1H-purine-2,6(3H,7H)-dione]	1 to 100 µM
Cn1c(=O)c2c(nc(S(=O)(=O)Cc3cc(Cl)ccc3Cl)n2C)n(C)c1=O [Compound 55, 8-(2,5-dichlorobenzylsulfonyl)-1,3,7-trimethyl-1H-purine-2,6(3H,7H)-dione]	1 to 100 µM
Cn1c(=O)c2c(nc(S(=O)(=O)CC3CC3)n2C)n(CC#Cc2cccc(Cl)c2)c1=O [Compound 119, 3-(3-(3-chlorophenyl)prop-2-yn-1-yl)-8-((cyclopropylmethyl)sulfonyl)-1,7-dimethyl-3,7-dihydro-1H-purine-2,6-dione]	1 to 10 µM
Cn1c(=O)c2c(nc(S(C)(=O)=O)n2C)n(CC#N)c1=O [Compound 107, 2-(1,7-dimethyl-8-(methylsulfonyl)-2,6-dioxo-1H-purin-3(2H,6H,7H)-yl)acetonitrile]	1 to 100 µM
CNc1cc(C#CCn2c(=O)n(C)c(=O)c3c2nc([S+]([O-])Cc2cc(OC)ccc2OC)n3C)ccn1 (centres unmarked) [Compound 128, 8-((2,5-dimethoxybenzyl)sulfinyl)-1,7-dimethyl-3-(3-(2-(methylamino)pyridin-4-yl)prop-2-yn-1-yl)-3,7-dihydro-1H-purine-2,6-dione]	1 to 100 µM
Cn1c(=O)c2c(nc(S(C)(=O)=O)n2C)n(C)c1=O [Compound 4, 1,3,7-trimethyl-8-(methylsulfonyl)-1H-purine-2,6(3H,7H)-dione]	1 to 10 µM
Cn1c(=O)c2c(nc(S(=O)(=O)CC3CC3)n2C)n(Cc2ccc(Br)cc2)c1=O [Compound 141, 3-(4-bromobenzyl)-8-((cyclopropylmethyl)sulfonyl)-1,7-dimethyl-1H-purine-2,6(3H,7H)-dione]	1 to 100 µM
CCn1c(S(=O)(=O)CC2CC2)nc2c1c(=O)n(C)c(=O)n2C [Compound 82]	1 to 100 µM

same assay, conditions: Homo sapiens; Series 2 (Table 2) compounds; HT-29 necroptosis assay; read-out: Series 2 compound necroptosis activity

SMILES	EC50
Cn1c(=O)c2c(nc(S(=O)(=O)CC3CC3)n2C)n(CC#Cc2ccnc(NC(=O)CN3CCOCC3)c2)c1=O [Compound 32]	0.001 to 0.1 µM
Cn1c(=O)c2c(nc(S(C)(=O)=O)n2C)n(CC#Cc2cc(NC(=O)CN3CCOCC3)cc(NC(=O)CN3CCOCC3)c2)c1=O [Compound 26]	0.001 to 0.1 µM
COCCn1c(S(C)(=O)=O)nc2c1c(=O)n(C)c(=O)n2C [Compound 6]	10 to 100 µM
Cn1c(=O)c2c(nc(S(C)(=O)=O)n2C)n(CC#Cc2cc(NC(=O)C3CC3)cc(NC(=O)C3CC3)c2)c1=O [Compound 27]	0.001 to 0.1 µM
Cn1c(=O)c2c(nc(S(C)(=O)=O)n2C)n(CC#Cc2ccc3[nH]c(=O)[nH]c3c2)c1=O [Compound 23]	0.1 to 10 µM
CCCNS(=O)(=O)c1nc2c(c(=O)n(C)c(=O)n2C)n1C [Compound 58]	10 to 100 µM
Cn1c(=O)c2c(nc(S(C)(=O)=O)n2C)n(CC#Cc2cc(NCC3CC3)cc(NCC3CC3)c2)c1=O [Compound 37]	0.001 to 0.1 µM
Cn1c(=O)c2c(nc(S(C)(=O)=O)n2C)n(CC#Cc2cccc(NCCN3CCCCC3)c2)c1=O [Compound 18]	0.1 to 10 µM
Cn1c(=O)c2c(nc(S(=O)(=O)CC3CC3)n2C)n(CC#Cc2ccnc(NCC3CC3)c2)c1=O [Compound 34]	0.001 to 0.1 µM

same assay, conditions: Series 1 (Table 1) compounds 1-146; HT-29 cells, TNF-α/Smac mimetic/z-VAD, 24 hrs, cell viability by ATP level; read-out: Series 1 compound necroptosis activity

SMILES	EC50
Cn1c(=O)c2c(nc(S(=O)(=O)Cc3cccc(Cl)c3Cl)n2C)n(C)c1=O [Compound 54, 8-(2,3-dichlorobenzylsulfonyl)-1,3,7-trimethyl-1H-purine-2,6(3H,7H)-dione]	1 to 1000 µM
Cn1c(=O)c2c(nc(S(=O)(=O)Cc3ccc(C4(C(F)(F)F)N=N4)cc3)n2C)n(C)c1=O [Compound 41, 1,3,7-trimethyl-8-(4-(3-(trifluoromethyl)-3H-diazirin-3-yl)benzylsulfonyl)-1H-purine-2,6(3H,7H)-dione]	1 to 1000 µM
Cn1c(=O)c2c(nc(S(=O)(=O)CC3CC3)n2C)n(Cc2cccnc2)c1=O [Compound 143, 8-((cyclopropylmethyl)sulfonyl)-1,7-dimethyl-3-(pyridin-3-ylmethyl)-1H-purine-2,6(3H,7H)-dione]	1 to 1000 µM
Cn1c(=O)c2c(nc(S(=O)(=O)Cc3cccc(C(N)=O)c3)n2C)n(C)c1=O [Compound 46, 3-((1,3,7-trimethyl-2,6-dioxo-2,3,6,7-tetrahydro-1H-purin-8-ylsulfonyl)methyl)benzamide]	1 to 1000 µM
Cn1c(S(C)(=O)=O)nc2c1c(=O)n(Cc1ccccc1)c(=O)n2C [Compound 93, 1-benzyl-3,7-dimethyl-8-(methylsulfonyl)-1H-purine-2,6(3H,7H)-dione]	1 to 1000 µM
Cn1c(=O)c2c(nc(S(=O)(=O)CC3CC3)n2C)n(Cc2ccccn2)c1=O [Compound 142, 8-((cyclopropylmethyl)sulfonyl)-1,7-dimethyl-3-(pyridin-2-ylmethyl)-1H-purine-2,6(3H,7H)-dione]	1 to 1000 µM
COc1cc(CS(=O)(=O)c2nc3c(c(=O)n(C)c(=O)n3C)n2C)c(OC)cc1Cl [Compound 70, 8-(4-chloro-2,5-dimethoxybenzylsulfonyl)-1,3,7-trimethyl-1H-purine-2,6(3H,7H)-dione]	1 to 1000 µM
CC[S+]([O-])c1nc2c(c(=O)n(C)c(=O)n2C)n1C (centres unmarked) [Compound 6, 8-(ethylsulfinyl)-1,3,7-trimethyl-1H-purine-2,6(3H,7H)-dione]	1 to 1000 µM
CCn1c(=O)c2c(nc(S(C)(=O)=O)n2C)n(C)c1=O [Compound 89, ethyl-3,7-dimethyl-8-(methylsulfonyl)-1H-purine-2,6(3H,7H)-dione]	1 to 1000 µM
COc1cccc(CS(=O)(=O)c2nc3c(c(=O)n(C)c(=O)n3C)n2C)c1OC [Compound 61, 8-(2,3-dimethoxybenzylsulfonyl)-1,3,7-trimethyl-1H-purine-2,6(3H,7H)-dione]	1 to 1000 µM
CSc1nc2c(c(=O)[nH]c(=O)n2C)n1C [Compound 87, 3,7-dimethyl-8-(methylthio)-1H-purine-2,6(3H,7H)-dione]	1 to 1000 µM
COc1ccc(Br)c(OC)c1CS(=O)(=O)c1nc2c(c(=O)n(C)c(=O)n2C)n1C [Compound 69, 8-(3-bromo-2,6-dimethoxybenzylsulfonyl)-1,3,7-trimethyl-1H-purine-2,6(3H,7H)-dione]	1 to 1000 µM
Cn1c(=O)c2c(nc(S(=O)(=O)Cc3ccccc3F)n2C)n(C)c1=O [Compound 26, 8-(2-fluorobenzylsulfonyl)-1,3,7-trimethyl-1H-purine-2,6(3H,7H)-dione]	1 to 1000 µM

same assay, conditions: Series 1 (Table 1) compounds 147-176; activity extrapolated; read-out: Series 1 compound necroptosis activity (extrapolated)

SMILES	EC50
Cn1c(=O)c2c(nc(S(C)(=O)=O)n2C)n(CC#Cc2ccc3c(c2)NCCC3)c1=O [Compound 170]	1 to 1000 µM
C=CC(=O)Nc1cccc(C#CCn2c(=O)n(C)c(=O)c3c2nc(S(=O)(=O)CC2CC2)n3C)c1 [Compound 160]	1 to 1000 µM
CNC/C=C/c1ccc(Cn2c(=O)n(C)c(=O)c3c2nc(S(=O)(=O)CC2CC2)n3C)s1 [Compound 173]	1 to 1000 µM
CNCCS(=O)(=O)c1nc2c(c(=O)n(C)c(=O)n2CC#Cc2cccc(O)c2)n1C [Compound 151]	1 to 1000 µM
CCCS(=O)(=O)c1nc2c(c(=O)n(C)c(=O)n2Cc2ccc(-c3cccc(NCC)c3)s2)n1C [Compound 176]	1 to 1000 µM
CNS(=O)(=O)c1nc2c(c(=O)n(C)c(=O)n2CC#Cc2cccc(O)c2)n1C [Compound 157]	1 to 1000 µM
CNc1cc(C#CCn2c(=O)n(C)c(=O)c3c2nc(S(C)(=O)=O)n3C)ccc1N1CCOCC1 [Compound 174]	1 to 1000 µM
Cn1c(=O)c2c(nc(S(C)(=O)=O)n2C)n(CC#Cc2ccc(=O)[nH]c2)c1=O [Compound 165]	1 to 1000 µM
CCCS(=O)(=O)c1nc2c(c(=O)n(C)c(=O)n2CC#Cc2cccc(O)c2)n1C [Compound 155]	1 to 1000 µM

same assay, conditions: Series 1 (Table 1) compounds; HT-29 cells, TNF-α/Smac mimetic/z-VAD, 24 hrs, cell viability by ATP level; read-out: Series 1 compound necroptosis activity

SMILES	EC50
CNc1cc(C#CCn2c(=O)n(C)c(=O)c3c2nc(S(=O)(=O)CC2CC2)n3C)ccn1 [Compound 126, 8-((cyclopropylmethyl)sulfonyl)-1,7-dimethyl-3-(3-(2-(methylamino)pyridin-4-yl)prop-2-yn-1-yl)-3,7-dihydro-1H-purine-2,6-dione]	0.001 to 1 µM
Cn1c(=O)c2c(nc(S(=O)(=O)CC3CC3)n2C)n(CC#Cc2ccc(Br)cc2)c1=O [Compound 122, 3-(3-(4-bromophenyl)prop-2-yn-1-yl)-8-((cyclopropylmethyl)sulfonyl)-1,7-dimethyl-3,7-dihydro-1H-purine-2,6-dione]	0.001 to 1 µM
